According to patent publication US12227500B2, “Substituted pyrrolo[2,3-b]pyridines for suppressing toxic endoplasmic reticulum stress” (THE TRUSTEES OF COLUMBIA UNIVERSITY IN THE CITY OF NEW YORK, priority 2018, dated 2025):
Like-named read-outs stand apart in the source and are kept apart here.

How the values were obtained:
Assay in all cases: Radiolabeled ATP kinase assay, panel of 371 kinases (Table S6)
Format in all cases: biochemical
[1] = biological target: T1, panel of 371 human kinases (Homo sapiens, UniProt Q86UE8); conditions: TLK2; 0.1 μM; 10 μM ATP; read-out: % Enzyme Activity (relative to DMSO controls)
T1 construct: purchased Reaction Biology Corp
T1 sequence (Q86UE8 whole entry): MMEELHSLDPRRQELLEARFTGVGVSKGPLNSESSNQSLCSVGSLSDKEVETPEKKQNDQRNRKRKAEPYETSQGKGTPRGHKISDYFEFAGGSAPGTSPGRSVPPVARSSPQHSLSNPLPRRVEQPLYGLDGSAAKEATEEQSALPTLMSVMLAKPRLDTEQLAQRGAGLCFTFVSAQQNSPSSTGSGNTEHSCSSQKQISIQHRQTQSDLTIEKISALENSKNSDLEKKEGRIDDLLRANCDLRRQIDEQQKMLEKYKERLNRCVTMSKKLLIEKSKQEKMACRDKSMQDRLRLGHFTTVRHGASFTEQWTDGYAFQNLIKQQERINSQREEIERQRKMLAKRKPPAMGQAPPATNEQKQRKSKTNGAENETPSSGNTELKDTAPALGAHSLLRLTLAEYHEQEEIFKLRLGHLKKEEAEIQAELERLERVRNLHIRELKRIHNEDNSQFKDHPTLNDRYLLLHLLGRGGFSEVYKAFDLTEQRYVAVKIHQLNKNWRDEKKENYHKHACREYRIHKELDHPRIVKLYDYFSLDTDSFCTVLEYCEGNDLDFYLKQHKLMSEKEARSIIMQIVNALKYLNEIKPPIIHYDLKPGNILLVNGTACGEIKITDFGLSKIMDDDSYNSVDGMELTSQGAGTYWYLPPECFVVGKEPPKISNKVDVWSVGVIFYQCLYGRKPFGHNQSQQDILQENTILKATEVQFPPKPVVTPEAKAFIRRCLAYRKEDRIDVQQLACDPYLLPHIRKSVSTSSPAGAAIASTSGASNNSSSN
Excerpt: (§1) ; FIG. 38C). […]. Further targeted analyses, such as genetic knock-down or knock-out, may be warranted to parse the role of these additional kinases in our model of neurodegeneration.

[2] = biological target: T2, panel of 371 human kinases (Homo sapiens, UniProt Q6VAB6); conditions: KSR2; 0.1 μM; 10 μM ATP; read-out: % Enzyme Activity (relative to DMSO controls)
T2 construct: purchased Reaction Biology Corp
Excerpt: as §1

[3] = biological target: T3, panel of 371 human kinases (Homo sapiens, UniProt O43781); conditions: DYRK3; 0.1 μM; 10 μM ATP; read-out: % Enzyme Activity (relative to DMSO controls)
T3 construct: purchased Reaction Biology Corp
Excerpt: as §1

[4] = biological target: T4, panel of 371 human kinases (Homo sapiens, UniProt P37173); conditions: TGFBR2; 0.1 μM; 10 μM ATP; read-out: % Enzyme Activity (relative to DMSO controls)
T4 construct: purchased Reaction Biology Corp
T4 sequence (P37173 23-567): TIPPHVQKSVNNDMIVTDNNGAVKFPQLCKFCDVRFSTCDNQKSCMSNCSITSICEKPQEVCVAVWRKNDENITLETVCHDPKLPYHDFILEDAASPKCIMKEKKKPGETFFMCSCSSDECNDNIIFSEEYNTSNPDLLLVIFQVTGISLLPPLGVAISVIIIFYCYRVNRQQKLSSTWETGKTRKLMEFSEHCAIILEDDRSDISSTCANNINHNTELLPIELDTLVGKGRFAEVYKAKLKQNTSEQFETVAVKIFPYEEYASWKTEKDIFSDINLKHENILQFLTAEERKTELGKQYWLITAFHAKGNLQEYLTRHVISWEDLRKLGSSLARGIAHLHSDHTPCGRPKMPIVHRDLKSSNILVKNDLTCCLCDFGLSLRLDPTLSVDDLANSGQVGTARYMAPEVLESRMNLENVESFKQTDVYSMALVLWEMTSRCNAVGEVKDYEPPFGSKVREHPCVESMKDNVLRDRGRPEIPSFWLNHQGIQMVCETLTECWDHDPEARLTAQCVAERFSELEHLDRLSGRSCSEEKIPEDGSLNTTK
Excerpt: as §1

[5] = biological target: T5, panel of 371 human kinases (Homo sapiens, UniProt Q05513); conditions: PKCzeta; 0.1 μM; 10 μM ATP; read-out: % Enzyme Activity (relative to DMSO controls)
T5 construct: purchased Reaction Biology Corp
Excerpt: as §1

[6] = biological target: T6, panel of 371 human kinases (Homo sapiens, UniProt P36894); conditions: ALK1/BMPR1A; 0.1 μM; 10 μM ATP; read-out: % Enzyme Activity (relative to DMSO controls)
T6 construct: purchased Reaction Biology Corp
Excerpt: as §1

[7] = biological target: T7, panel of 371 human kinases (Homo sapiens, UniProt O94921); conditions: CDK14/cyclin Y (PFTK1); 0.1 μM; 10 μM ATP; read-out: % Enzyme Activity (relative to DMSO controls)
T7 construct: purchased Reaction Biology Corp
Excerpt: as §1

[8] = biological target: T8, panel of 371 human kinases (Homo sapiens, UniProt O14965); conditions: Aurora A; 0.1 μM; 10 μM ATP; read-out: % Enzyme Activity (relative to DMSO controls)
T8 construct: purchased Reaction Biology Corp
Excerpt: as §1

[9] = biological target: T9, panel of 371 human kinases (Homo sapiens, UniProt P24941); conditions: 0.1 μM, 10 μM ATP, read-out: % Enzyme Activity (relative to DMSO controls)
T9 construct: purchased Reaction Biology Corp
Excerpt: as §1

[10] = biological target: T10, panel of 371 human kinases (Homo sapiens, UniProt P41279); conditions: COT1/MAP3K8; 0.1 μM; 10 μM ATP; read-out: % Enzyme Activity (relative to DMSO controls)
T10 construct: purchased Reaction Biology Corp
Excerpt: as §1

[11] = biological target: T11, panel of 371 human kinases (Homo sapiens, UniProt Q16539); conditions: P38a/MAPK14; 0.1 μM; 10 μM ATP; read-out: % Enzyme Activity (relative to DMSO controls)
T11 construct: purchased Reaction Biology Corp
Excerpt: as §1

[12] = biological target: T12, panel of 371 human kinases (Homo sapiens, UniProt Q6XUX3); conditions: RIPK5; 0.1 μM; 10 μM ATP; read-out: % Enzyme Activity (relative to DMSO controls)
T12 construct: purchased Reaction Biology Corp
Excerpt: as §1

[13] = biological target: T13, panel of 371 human kinases (Homo sapiens, UniProt Q9BZL6); conditions: PKD2/PRKD2; 0.1 μM; 10 μM ATP; read-out: % Enzyme Activity (relative to DMSO controls)
T13 construct: purchased Reaction Biology Corp
T13 sequence (Q9BZL6 whole entry): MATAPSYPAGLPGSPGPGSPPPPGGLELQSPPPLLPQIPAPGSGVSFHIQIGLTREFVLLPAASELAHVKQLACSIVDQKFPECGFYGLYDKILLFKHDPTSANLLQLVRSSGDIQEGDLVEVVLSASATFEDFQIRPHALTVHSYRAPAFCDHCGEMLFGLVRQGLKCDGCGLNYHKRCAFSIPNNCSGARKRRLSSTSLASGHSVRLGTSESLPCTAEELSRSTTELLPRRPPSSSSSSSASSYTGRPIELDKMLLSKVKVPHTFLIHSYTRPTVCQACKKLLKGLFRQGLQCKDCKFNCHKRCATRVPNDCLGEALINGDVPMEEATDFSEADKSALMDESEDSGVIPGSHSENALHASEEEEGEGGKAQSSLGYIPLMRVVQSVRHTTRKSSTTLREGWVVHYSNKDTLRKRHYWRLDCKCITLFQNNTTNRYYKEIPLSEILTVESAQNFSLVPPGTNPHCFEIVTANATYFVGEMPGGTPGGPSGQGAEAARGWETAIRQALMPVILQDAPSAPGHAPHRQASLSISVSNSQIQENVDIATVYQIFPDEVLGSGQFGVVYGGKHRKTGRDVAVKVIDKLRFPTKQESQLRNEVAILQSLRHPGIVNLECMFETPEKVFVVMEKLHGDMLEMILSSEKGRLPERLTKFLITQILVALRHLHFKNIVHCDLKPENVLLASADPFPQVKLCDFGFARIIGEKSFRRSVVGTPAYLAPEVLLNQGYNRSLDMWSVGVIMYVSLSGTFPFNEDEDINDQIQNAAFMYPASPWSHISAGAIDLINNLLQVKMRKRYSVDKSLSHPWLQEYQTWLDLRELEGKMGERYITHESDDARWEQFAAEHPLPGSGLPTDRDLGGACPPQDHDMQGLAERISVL
Excerpt: as §1

[14] = biological target: T14, panel of 371 human kinases (Homo sapiens, UniProt Q16512); conditions: PKN1/PRK1; 0.1 μM; 10 μM ATP; read-out: % Enzyme Activity (relative to DMSO controls)
T14 construct: purchased Reaction Biology Corp
Excerpt: as §1

[15] = biological target: T15, panel of 371 human kinases (Homo sapiens, UniProt O00311); conditions: CDC7/DBF4; 0.1 μM; 10 μM ATP; read-out: % Enzyme Activity (relative to DMSO controls)
T15 construct: purchased Reaction Biology Corp
Excerpt: as §1

[16] = biological target: T16, panel of 371 human kinases (Homo sapiens, UniProt P53355); conditions: DAPK1; 0.1 μM; 10 μM ATP; read-out: % Enzyme Activity (relative to DMSO controls)
T16 construct: purchased Reaction Biology Corp
Excerpt: as §1

[17] = biological target: T17, panel of 371 human kinases (Homo sapiens, UniProt Q9UEE5); conditions: DRAK1/STK17A; 0.1 μM; 10 μM ATP; read-out: % Enzyme Activity (relative to DMSO controls)
T17 construct: purchased Reaction Biology Corp
T17 sequence (Q9UEE5 whole entry): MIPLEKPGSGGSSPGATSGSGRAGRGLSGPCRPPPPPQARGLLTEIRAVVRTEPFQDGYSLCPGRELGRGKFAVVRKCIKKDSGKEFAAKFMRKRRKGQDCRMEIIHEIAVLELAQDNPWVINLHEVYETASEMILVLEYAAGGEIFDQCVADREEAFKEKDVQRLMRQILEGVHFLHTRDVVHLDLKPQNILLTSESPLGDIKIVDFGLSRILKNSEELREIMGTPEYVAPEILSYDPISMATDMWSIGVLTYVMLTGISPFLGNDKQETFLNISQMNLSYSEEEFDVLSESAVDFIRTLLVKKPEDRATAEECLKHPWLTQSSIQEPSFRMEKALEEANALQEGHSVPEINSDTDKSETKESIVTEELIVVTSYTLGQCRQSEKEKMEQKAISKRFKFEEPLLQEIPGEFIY
Excerpt: as §1

[18] = biological target: T18, panel of 371 human kinases (Homo sapiens, UniProt Q04759); conditions: PKCtheta; 0.1 μM; 10 μM ATP; read-out: % Enzyme Activity (relative to DMSO controls)
T18 construct: purchased Reaction Biology Corp
T18 sequence (Q04759 whole entry): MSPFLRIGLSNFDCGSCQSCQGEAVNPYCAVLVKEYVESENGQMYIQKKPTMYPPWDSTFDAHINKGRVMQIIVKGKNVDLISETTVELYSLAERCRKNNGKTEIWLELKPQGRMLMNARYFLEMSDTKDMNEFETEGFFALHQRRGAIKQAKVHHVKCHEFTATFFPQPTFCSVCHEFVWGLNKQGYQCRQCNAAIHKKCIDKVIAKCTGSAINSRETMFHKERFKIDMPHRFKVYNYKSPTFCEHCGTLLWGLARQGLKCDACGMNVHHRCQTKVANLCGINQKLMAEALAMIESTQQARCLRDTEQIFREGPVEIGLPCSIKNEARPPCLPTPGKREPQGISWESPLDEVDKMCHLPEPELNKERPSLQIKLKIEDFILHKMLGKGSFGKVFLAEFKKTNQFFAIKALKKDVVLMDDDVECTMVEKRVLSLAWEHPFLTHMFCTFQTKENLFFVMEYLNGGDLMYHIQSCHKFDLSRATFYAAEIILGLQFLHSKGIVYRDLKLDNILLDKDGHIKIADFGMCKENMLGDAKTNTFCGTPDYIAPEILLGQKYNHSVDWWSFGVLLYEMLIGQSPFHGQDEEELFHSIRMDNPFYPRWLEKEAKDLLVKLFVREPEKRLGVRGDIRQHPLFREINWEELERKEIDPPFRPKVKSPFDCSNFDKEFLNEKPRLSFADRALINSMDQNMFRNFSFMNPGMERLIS
Excerpt: as §1

[19] = biological target: T19, panel of 371 human kinases (Homo sapiens, UniProt Q9Y2H1); conditions: STK38/NDR2; 0.1 μM; 10 μM ATP; read-out: % Enzyme Activity (relative to DMSO controls)
T19 construct: purchased Reaction Biology Corp
Excerpt: as §1

[20] = biological target: T20, panel of 371 human kinases (Homo sapiens, UniProt P53350); conditions: PLK1; 0.1 μM; 10 μM ATP; read-out: % Enzyme Activity (relative to DMSO controls)
T20 construct: purchased Reaction Biology Corp
T20 sequence (P53350 whole entry): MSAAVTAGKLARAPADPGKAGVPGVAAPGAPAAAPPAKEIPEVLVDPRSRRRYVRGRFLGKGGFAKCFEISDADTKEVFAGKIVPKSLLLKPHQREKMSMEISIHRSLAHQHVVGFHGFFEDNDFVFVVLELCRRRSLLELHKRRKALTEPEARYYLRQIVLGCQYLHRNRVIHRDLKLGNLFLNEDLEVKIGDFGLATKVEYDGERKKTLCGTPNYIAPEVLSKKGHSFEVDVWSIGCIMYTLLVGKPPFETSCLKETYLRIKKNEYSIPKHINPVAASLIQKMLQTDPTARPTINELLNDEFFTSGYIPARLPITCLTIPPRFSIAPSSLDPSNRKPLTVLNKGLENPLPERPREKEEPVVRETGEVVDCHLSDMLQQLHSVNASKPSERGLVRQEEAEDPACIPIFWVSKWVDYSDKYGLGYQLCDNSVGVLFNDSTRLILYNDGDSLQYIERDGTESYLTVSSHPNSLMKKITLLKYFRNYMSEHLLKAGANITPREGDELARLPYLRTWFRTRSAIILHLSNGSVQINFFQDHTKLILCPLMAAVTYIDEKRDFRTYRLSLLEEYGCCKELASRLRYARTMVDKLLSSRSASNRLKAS
Excerpt: as §1

[21] = biological target: T21, panel of 371 human kinases (Homo sapiens, UniProt P53667); conditions: LIMK1; 0.1 μM; 10 μM ATP; read-out: % Enzyme Activity (relative to DMSO controls)
T21 construct: purchased Reaction Biology Corp
T21 sequence (P53667 whole entry): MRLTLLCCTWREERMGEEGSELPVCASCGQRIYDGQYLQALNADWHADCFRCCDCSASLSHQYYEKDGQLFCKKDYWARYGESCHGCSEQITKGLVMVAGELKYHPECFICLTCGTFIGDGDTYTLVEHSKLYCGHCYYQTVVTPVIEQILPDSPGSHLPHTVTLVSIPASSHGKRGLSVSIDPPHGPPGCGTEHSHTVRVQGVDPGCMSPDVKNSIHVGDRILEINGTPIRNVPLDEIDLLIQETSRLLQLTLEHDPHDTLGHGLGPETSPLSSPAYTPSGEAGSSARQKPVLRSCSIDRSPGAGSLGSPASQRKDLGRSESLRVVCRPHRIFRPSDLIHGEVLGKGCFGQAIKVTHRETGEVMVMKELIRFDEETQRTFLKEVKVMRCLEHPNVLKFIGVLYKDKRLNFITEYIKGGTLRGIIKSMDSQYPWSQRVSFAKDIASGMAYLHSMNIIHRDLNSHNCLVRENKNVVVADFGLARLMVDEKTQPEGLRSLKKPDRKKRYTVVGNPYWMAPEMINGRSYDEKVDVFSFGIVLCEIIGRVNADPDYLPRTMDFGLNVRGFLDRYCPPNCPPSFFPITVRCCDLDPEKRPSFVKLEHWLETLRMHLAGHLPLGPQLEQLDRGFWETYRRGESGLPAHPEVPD
Excerpt: as §1

[22] = biological target: T22, panel of 371 human kinases (Homo sapiens, UniProt P22694); conditions: PKAcb; 0.1 μM; 10 μM ATP; read-out: % Enzyme Activity (relative to DMSO controls)
T22 construct: purchased Reaction Biology Corp
Excerpt: as §1

[23] = biological target: T23, panel of 371 human kinases (Homo sapiens, UniProt Q96GD4); conditions: Aurora B; 0.1 μM; 10 μM ATP; read-out: % Enzyme Activity (relative to DMSO controls)
T23 construct: purchased Reaction Biology Corp
T23 sequence (Q96GD4 whole entry): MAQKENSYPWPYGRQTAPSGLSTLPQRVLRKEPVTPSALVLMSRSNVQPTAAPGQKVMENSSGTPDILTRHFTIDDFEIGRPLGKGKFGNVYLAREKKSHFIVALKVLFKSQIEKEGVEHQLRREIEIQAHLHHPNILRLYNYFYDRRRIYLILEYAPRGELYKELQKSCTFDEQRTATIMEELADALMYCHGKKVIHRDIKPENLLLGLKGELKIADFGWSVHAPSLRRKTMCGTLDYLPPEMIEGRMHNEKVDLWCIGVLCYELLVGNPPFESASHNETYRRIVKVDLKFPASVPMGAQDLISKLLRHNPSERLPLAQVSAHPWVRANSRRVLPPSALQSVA
Excerpt: as §1

Structure (SMILES)	remaining activity at 0.1 µM [1]	remaining activity at 0.1 µM [2]	remaining activity at 0.1 µM [3]	remaining activity at 0.1 µM [4]	remaining activity at 0.1 µM [5]	remaining activity at 0.1 µM [6]	remaining activity at 0.1 µM [7]	remaining activity at 0.1 µM [8]	remaining activity at 0.1 µM ([9]; CDK2/cyclin A1)	remaining activity at 0.1 µM ([9]; CDK2/cyclin A)	remaining activity at 0.1 µM ([9]; CDK2/cyclin E2)	remaining activity at 0.1 µM ([9]; CDK2/cyclin E)	remaining activity at 0.1 µM ([9]; CDK2/cyclin O)	remaining activity at 0.1 µM [10]	remaining activity at 0.1 µM [11]	remaining activity at 0.1 µM [12]	remaining activity at 0.1 µM [13]	remaining activity at 0.1 µM [14]	remaining activity at 0.1 µM [15]	remaining activity at 0.1 µM [16]	further results
CN1CCN(Cc2ccc(-c3cnc4[nH]cc(-c5ccc6[nH]ccc6c5)c4c3)cc2)CC1 [Compound 1, 3-(1H-Indol-5-yl)-5-(4-((4-methylpiperazin-1-yl)methyl)phenyl)-1H-pyrrolo[2,3-b]pyridine, reference compound]	93%	102%	74.9%	106%	93.6%	97%	110%	95.2%	94.2%	90.2%	110%	96.1%	102%	101%	105%	75.6%	23.2%	94%	100%	96.3%	remaining activity at 0.1 µM [17]: 88.7%; remaining activity at 0.1 µM [18]: 90.8%; remaining activity at 0.1 µM [19]: 87.7%; remaining activity at 0.1 µM [20]: 98.6%; remaining activity at 0.1 µM [21]: 112%; remaining activity at 0.1 µM [22]: 106%; remaining activity at 0.1 µM [23]: 103%
OCCN1CCN(Cc2ccc(-c3cnc4[nH]cc(-c5cccc(Cl)c5)c4c3)cc2)CC1 [Compound 12k, 2-(4-(4-(3-(3-Chlorophenyl)-1H-pyrrolo[2,3-b]pyridin-5-yl)benzyl)piperazin-1-yl)ethan-1-ol]	95.2%	106%	89.2%	88%	97.7%	96.8%	94.9%	104%	87.1%	83.1%	89.6%	98.3%	82.5%	87.5%	103%	73.4%	9.36%	95%	98.3%	95.4%	remaining activity at 0.1 µM [17]: 88.8%; remaining activity at 0.1 µM [18]: 94.6%; remaining activity at 0.1 µM [19]: 77.8%; remaining activity at 0.1 µM [20]: 100%; remaining activity at 0.1 µM [21]: 103%; remaining activity at 0.1 µM [22]: 92.6%; remaining activity at 0.1 µM [23]: 82.6%
